Reference: the supplement of paper PMC10307832

How the values were obtained:
Test in all cases: relative viability (nuclei count vs DMSO), 5 days (fraction); higher = more cells survive
[1] = compound: C=CC(=O)Nc1cc(-n2c(=O)ccc3cnc4ccc(-c5ccc(NS(C)(=O)=O)cc5)cc4c32)ccc1C [BMX-IN-1] + COc1cccc2cc(-c3nc([C@H]4CC[C@H](C(=O)O)CC4)n4ncnc(N)c34)[nH]c12 [OSI-027] (partner 0.5 µM)
Method in brief: (§1)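 Dosing by pin tool came one day after lung cancer cell lines were seeded in 1536-well plates, using either one drug or a fixed anchor-drug dose plus five library-drug doses (not always all listed) in √10 steps. After 5 days, nuclei were counted on 4× images. Relative viability is treated-well nuclei count divided by vehicle-well nuclei count, and values are medians of duplicate plates.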

[2] = compound: C=CCc1cccc(/C=N/NC(=O)CN2CCN(Cc3ccccc3)CC2)c1O [PAC-1] + COc1cc2c(Oc3ccc(NC(=O)C4(C(=O)Nc5ccc(F)cc5)CC4)cc3F)ccnc2cc1OCCCN1CCOCC1 [Foretinib] (partner 0.25 µM)
Method in brief: as §1

[3] = compound: C=CC(=O)N1CCC[C@@H](n2nc(-c3ccc(Oc4ccccc4)cc3)c3c(N)ncnc32)C1 [Ibrutinib] + Cc1nc(Nc2ncc(C(=O)Nc3c(C)cccc3Cl)s2)cc(N2CCN(CCO)CC2)n1 [Dasatinib] (partner 0.075 µM)
Method in brief: as §1

[4] = compound: C=CCc1cccc(/C=N/NC(=O)CN2CCN(Cc3ccccc3)CC2)c1O [PAC-1] + CS(=O)(=O)CCNCc1ccc(-c2ccc3ncnc(Nc4ccc(OCc5cccc(F)c5)c(Cl)c4)c3c2)o1 [Lapatinib] (partner 2 µM)
Method in brief: as §1

Row | Cell Line | relative viability ([1]; first compound 0.02 µM) | relative viability ([1]; first compound 0.2 µM) | relative viability ([1]; first compound 0.6325 µM) | relative viability ([1]; first compound 2 µM) | relative viability ([2]; first compound 0.02 µM) | relative viability ([2]; first compound 0.06325 µM) | relative viability ([2]; first compound 0.2 µM) | relative viability ([2]; first compound 2 µM) | relative viability ([3]; first compound 0.005 µM) | relative viability ([3]; first compound 0.01581 µM) | relative viability ([3]; first compound 0.05 µM) | relative viability ([3]; first compound 0.1581 µM) | relative viability ([3]; first compound 0.5 µM) | relative viability ([4]; first compound 0.02 µM) | relative viability ([4]; first compound 0.06325 µM) | relative viability ([4]; first compound 0.2 µM) | relative viability ([4]; first compound 2 µM)
1 | NCI-H1975 | 0.873 | 0.741 | 1.04 | 0.696 | 0.933 | 0.947 | 1.01 | 0.932 | 0.349 | 0.293 | 0.263 | 0.345 | 0.134 | 0.866 | 0.871 | 0.939 | 0.97
2 | NCI-H1993 | 0.546 | 0.6 | 0.489 | 0.476 | 0.718 | 0.746 | 0.608 | 0.826 | 0.504 | 0.658 | 0.532 | 0.53 | 0.56 | 0.774 | 0.835 | 0.838 | 0.887
3 | NCI-H2009 | 0.689 | 0.651 | 0.639 | 0.386 | 1.2 | 1.23 | 1.21 | 1.19 | 0.3 | 0.254 | 0.319 | 0.267 | 0.386 | 0.93 | 0.318 | 0.855 | 0.9
4 | NCI-H2023 | 0.448 | 0.434 | 0.418 | 0.244 | 0.824 | 0.789 | 0.911 | 0.773 | 0.578 | 0.546 | 0.532 | 0.55 | 0.516 | 1.1 | 0.849 | 0.768 | 0.847
5 | NCI-H2085 | 0.743 | 0.748 | 0.696 | 0.745 | 0.815 | 0.932 | 0.998 | 1.07 | 0.26 | 0.254 | 0.219 | 0.202 | 0.216 | 0.756 | 0.728 | 0.707 | 0.909
6 | NCI-H2087 | 0.624 | 0.712 | 0.589 | 0.485 | 0.787 | 1.22 | 0.959 | 1.18 | 1.11 | 0.91 | 1.01 |  | 0.951 | 1.07 | 1.06 | 0.815 | 0.922
7 | NCI-H2126 | 0.696 | 0.703 | 0.872 | 0.664 | 1.28 | 1.25 | 1.15 | 1.12 | 0.506 | 0.57 | 0.546 | 0.574 | 0.623 | 0.745 | 0.763 | 0.817 | 0.816
8 | NCI-H2170 | 0.735 | 0.803 | 0.79 | 0.769 | 1.08 | 0.961 | 0.969 | 1.01 | 0.464 | 0.413 | 0.209 | 0.447 | 0.211 | 0.247 | 0.258 | 0.255 | 0.264
9 | NCI-H2228 | 0.595 | 0.673 | 0.789 | 0.529 | 0.903 | 0.862 | 0.888 | 0.786 | 0.584 |  | 0.553 | 0.5 | 0.428 | 1.26 | 1.25 | 1.02 | 1.23
10 | NCI-H2347 | 0.39 | 0.356 | 0.525 | 0.38 | 0.786 | 0.771 | 0.601 | 1.3 |  | 0.298 | 0.274 | 0.188 | 0.302 | 0.947 | 0.885 | 0.859 | 0.892
11 | NCI-H2405 | 0.647 | 0.63 | 0.605 | 0.634 | 1.04 | 1.04 | 1.02 | 1.1 | 0.232 | 0.19 | 0.189 | 0.206 | 0.237 | 1.03 | 1.17 | 1.14 | 1.24
12 | NCI-H3122 | 1.23 | 1.1 | 1.3 | 1.1 | 0.958 | 0.976 | 0.967 | 0.89 | 0.816 | 0.841 | 0.699 | 0.676 | 0.771 | 1.01 | 1.03 | 0.983 | 0.953
13 | PC-3 [JPC-3] | 0.783 | 0.887 | 0.84 | 0.793 | 1.06 | 1.02 | 0.996 | 0.994 | 0.865 | 0.862 | 0.774 | 0.979 | 0.327 | 0.416 | 0.474 | 0.447 | 0.465
14 | PC-14 | 1.46 | 1.19 | 0.994 | 0.0726 | 0.932 | 0.939 | 0.935 | 0.92 |  | 0.228 | 0.209 | 0.312 | 0.0569 | 0.324 | 0.315 | 0.275 | 0.321
15 | RERF-LC-KJ | 0.626 | 0.612 | 0.587 | 0.278 | 0.961 | 0.854 | 0.845 | 0.904 | 0.936 | 0.637 | 0.757 | 0.85 | 0.88 | 0.857 | 0.817 | 0.864 | 0.87
16 | SK-LU-1 | 0.345 | 0.316 | 0.42 | 0.298 | 0.834 | 0.797 | 0.78 | 0.78 | 0.179 | 0.162 | 0.17 | 0.183 | 0.162 | 0.601 | 0.942 | 0.67 | 0.867
17 | SW 1573 | 0.882 | 0.778 | 0.736 | 0.0649 | 0.828 | 0.741 | 0.912 | 0.979 | 0.647 | 0.494 | 0.477 | 0.588 | 0.514 | 1.05 | 1.16 | 1 | 1.09
18 | UMC-11 | 0.571 | 0.578 | 0.491 | 0.488 | 1.06 | 1.05 | 1.04 | 1.01 | 0.417 | 0.411 | 0.485 | 0.548 | 0.486 | 0.994 | 0.987 | 0.978 | 1.07
